Assay results taken from patent US7351726B2, “Substituted oxadiazolidinediones” (Wyeth, priority 2003, dated 2008).

Experiments:
[1] = molecular target: human PAI-1 (Homo sapiens, UniProt P05121); assay: Assay for determining IC50 of inhibition of PAI-1 (tPA-coated plate, antibody detection of active PAI-1); assay type: binding; details: active human PAI-1 bound to tPA-coated plate; pH 7.5; compound 1-50 μM
Description: This assay is based upon the non-SDS dissociable interaction between tPA and active PAI-1. Assay plates are initially coated with human tPA (10 μg/ml). Substituted oxadiazolidinedione of the present invention are dissolved in DMSO at 10 mM, then diluted with physiologic buffer (pH 7.5) to a final concentration of 1-50 μM. WAY compounds are incubated with human PAI-1 (50 ng/ml) for 15 minutes at room temperature. The tPA-coated plate is washed with a solution of 0.05% Tween 20 and 0.1% BSA, then the plate is blocked with a solution of 3% BSA. An aliquot of the substituted oxadiazolidinedione/PA-1 solution is then added to the tPA-coated plate, incubated at room temperature for 1 hour, and washed. Active PAI-1 bound to the plate is assessed by adding an aliquot of a 1:1000 dilution of the 33B8 monoclonal antibody against human PAI-1, and incubating the plate at room temperature for 1 hour (Molecular Innovations, Royal Oak, Mich.). […] The plate is incubated 45 minutes at room temperature, and color development is determined at OD405nm. The quantitation of active PAI-1 bound to tPA at varying concentrations of substituted oxadiazolidinedione is used to determine the IC50. Results are analyzed using a logarithmic best-fit equation. The assay sensitivity is 5 ng/ml of human PAI-1 as determined from a standard curve ranging from 0-100 ng/ml.

[2] = molecular target: T1, recombinant human plasminogen activator inhibitor-1 (PAI-1) (Homo sapiens, UniProt P05121); assay: Primary screen for PAI-1 inhibition (chromogenic tPA activity assay); assay type: biochemical; details: 100 μM compound; 140 nM PAI-1, 70 nM tPA; pH 6.6
T1 construct: purchased Molecular Innovations, Royal Oak, Mich
Description: Test compounds are dissolved in DMSO at a final concentration of 10 mM, then diluted 100× in physiologic buffer. The inhibitory assay is initiated by the addition of the substituted oxadiazolidinedione (1-100 μM final concentration, maximum DMSO concentration of 0.2%) in a pH 6.6 buffer containing 140 nM recombinant human plasminogen activator inhibitor-1 (PAI-1; Molecular Innovations, Royal Oak, Mich.). Following a 1 hour incubation at room temperature, 70 nM of recombinant human tissue plasminogen activator (tPA) is added, and the combination of the substituted oxadiazolidinedione, PAI-1 and tPA is incubated for an additional 30 minutes. Following the second incubation, Spectrozyme-tPA (American Diagnostica, Greenwich, CT), a chromogenic substrate for tPA, is added and absorbance read at 405 nm at 0 and 60 minutes. Relative PAI-1 inhibition is equal to the residual tPA activity in the presence of WAY and PAI-1. Control treatments include the complete inhibition of tPA by PAI-1 at the molar ratio employed (2:1), and the absence of any effect of the substituted oxadiazolidinedione on tPA alone.

Chain of human PAI-1 (P05121 24-402): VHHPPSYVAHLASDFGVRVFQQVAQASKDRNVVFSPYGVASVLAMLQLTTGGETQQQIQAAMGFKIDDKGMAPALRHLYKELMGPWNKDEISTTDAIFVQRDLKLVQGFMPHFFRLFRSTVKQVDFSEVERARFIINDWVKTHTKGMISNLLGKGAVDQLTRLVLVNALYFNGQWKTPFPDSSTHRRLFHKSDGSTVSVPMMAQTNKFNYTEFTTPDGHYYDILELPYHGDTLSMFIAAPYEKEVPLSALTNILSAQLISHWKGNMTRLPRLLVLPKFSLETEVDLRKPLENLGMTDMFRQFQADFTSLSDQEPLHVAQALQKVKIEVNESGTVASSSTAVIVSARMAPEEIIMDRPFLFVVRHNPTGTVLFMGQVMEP
T1 sequence (P05121 24-402): as above

Row | melting point [°C] | IC50 [1] [µM] | inhibition at 100 µM [2] [%] | SMILES
1 | 118 to 120 | 9.3 |  | CC/C(=C/Cn1oc(=O)[nH]c1=O)c1ccc2c(Cc3ccccc3)c(CC)oc2c1 [Compound 1, Z-2-[-3-(3-Benzyl-2-ethyl-benzofuran-6-yl)-pent-2-enyl]-[1,2,4]oxadiazolidine-3,5-dione]
2 |  |  | 39 | CC/C(=C\Cn1oc(=O)[nH]c1=O)c1ccc2c(Cc3ccccc3)c(CC)oc2c1 [Compound 2, E-2-[-3-(3-Benzyl-2-ethyl-benzofuran-6-yl)-pent-2-enyl]-[1,2,4]oxadiazolidine-3,5-dione]
